# Active and inactive are the calls of the source. The rule behind the calls is not given here.
# Key:
# Staphylococcus aureus [1] = experiment: Antibacterial activity against methicillin-resistant Staphylococcus aureus assessed as bacterial growth inhibition measured after 24 hrs by two fold serial dilution technique; type: functional
# Enterococcus faecium = experiment: Antibacterial activity against Enterococcus faecium assessed as bacterial growth inhibition measured after 24 hrs by two fold serial dilution technique; type: functional
# Staphylococcus aureus [2] = experiment: Antibacterial activity against Staphylococcus aureus assessed as bacterial growth inhibition measured after 24 hrs by two fold serial dilution technique; type: functional
# Staphylococcus aureus [3] = experiment: Antibacterial activity against Staphylococcus aureus ATCC 25923 assessed as bacterial growth inhibition measured after 24 hrs by two fold serial dilution technique; type: functional
# Staphylococcus aureus [4] = experiment: Antibacterial activity against Staphylococcus aureus ATCC 29213 assessed as bacterial growth inhibition measured after 24 hrs by two fold serial dilution technique; type: functional
# Klebsiella pneumoniae = experiment: Antibacterial activity against Klebsiella pneumoniae assessed as bacterial growth inhibition measured after 24 hrs by two fold serial dilution technique; type: functional
# Escherichia coli [5] = experiment: Antibacterial activity against Escherichia coli assessed as bacterial growth inhibition measured after 24 hrs by two fold serial dilution technique; type: functional
# Pseudomonas aeruginosa [6] = experiment: Antibacterial activity against Pseudomonas aeruginosa assessed as bacterial growth inhibition measured after 24 hrs by two fold serial dilution technique; type: functional
# Acinetobacter baumannii = experiment: Antibacterial activity against Acinetobacter baumannii assessed as bacterial growth inhibition measured after 24 hrs by two fold serial dilution technique; type: functional
# Pseudomonas aeruginosa [7] = experiment: Antibacterial activity against Pseudomonas aeruginosa ATCC 27853 assessed as bacterial growth inhibition measured after 24 hrs by two fold serial dilution technique; type: functional
# Escherichia coli [8] = experiment: Antibacterial activity against Escherichia coli ATCC 25922 assessed as bacterial growth inhibition measured after 24 hrs by two fold serial dilution technique; type: functional
# [9] = Hemolytic activity in human RBC assessed as hemolysis incubated for 1 hr; type: toxicity, cell-based, Erythrocyte; conditions: red blood cells
# L929 = experiment: Cytotoxicity against mouse L929 cells assessed as reduction in cell viability at 0.39 to 100 ug/ml incubated for 24 hrs by MTT assay; type: toxicity, cell-based; conditions: l929, 24 h, dose 0.39-100 µg/ml
# Staphylococcus aureus [10] = experiment: Antibacterial activity against methicillin resistant Staphylococcus aureus treated over 16 serial passages measured after 24 hrs by resistance development assay; type: functional, organism-based
# Staphylococcus aureus [11] = experiment: Antibacterial activity against methicillin-resistant Staphylococcus aureus assessed as inhibition of bacterial growth at 1 time MIC measured after 2 hrs; type: functional, organism-based
# Staphylococcus aureus [12] = experiment: Antibacterial activity against methicillin-resistant Staphylococcus aureus assessed as inhibition of bacterial growth at 2 time MIC measured after 2 hrs; type: functional, organism-based
# Staphylococcus aureus [13] = experiment: Antibacterial activity against methicillin-resistant Staphylococcus aureus assessed as inhibition of bacterial growth at 0.5 time MIC measured after 2 hrs; type: functional, organism-based
# Staphylococcus aureus [14] = experiment: Antibacterial activity against methicillin-resistant Staphylococcus aureus assessed as disrupted cell shapes at 1 time MIC incubated for 8 hrs by SEM analysis; type: functional, organism-based
# Cell membrane [15] = experiment: Induction of membrane depolarization in methicillin-resistant Staphylococcus aureus at MIC measured upto 1 hr by DiSC35 dye-based fluorescence assay; conditions: time hrs <=1, TDE = time-dependent effect
# Cell membrane [16] = experiment: Induction of inner membrane permeabilization in methicillin-resistant Staphylococcus aureus at 1 time MIC measured for 1 hr by PI dye-based fluorescence assay; conditions: TDE = time-dependent effect
# Cell membrane [17] = experiment: Induction of inner membrane permeabilization in methicillin-resistant Staphylococcus aureus at 2 times MIC measured for 1 hr by PI dye-based fluorescence assay; conditions: TDE = time-dependent effect
# Cell membrane [18] = experiment: Induction of cell membrane disruption in methicillin-resistant Staphylococcus aureus assessed as increase in protein leakage measured after 6 hrs by Bradford assay
# Staphylococcus aureus [19] = experiment: Antibacterial activity against methicillin-resistant Staphylococcus aureus assessed as respiratory pathway inactivation by measuring decrease in LDH activity at MIC incubated for 6 hrs by LDH assay; type: functional; design: scale not given: the % may be the effect or the level left
# Staphylococcus aureus [20] = experiment: Antibacterial activity against methicillin-resistant Staphylococcus aureus assessed as respiratory pathway inactivation by measuring decrease in LDH activity measured after 6 hrs by LDH assay; type: functional, organism-based
# Homo sapiens = species on record: Homo sapiens; experiment: Binding affinity to lipase (unknown origin) assessed as decrease in fluorescence intensity measured after 5 mins by fluorescence spectrofluorometric analysis
# DNA [21] = experiment: Binding affinity to DNA (unknown origin) assessed as hypochromicity at 0.2 to 0.8 10^-5 mol/L by UV spectrophotometric analysis; type: functional; conditions: Homo sapiens; dose 0.2-0.8 10^-5mol/L
# DNA [22] = experiment: Binding affinity to DNA (unknown origin) assessed as decrease in fluorescence intensity at 5 10^-5 mol/L by acridine orange staining based fluorescence microscopic analysis; type: functional; conditions: Homo sapiens
# Staphylococcus aureus [23] = experiment: Induction of ROS generation in methicillin-resistant Staphylococcus aureus after 6 hrs by DCFH-DA staining based fluorescence assay; type: functional, organism-based
# Staphylococcus = experiment: Binding affinity to Staphylococcus aureus PBP2a measured after 6 hrs by ELISA; conditions: filed as positive allosteric modulator
# Staphylococcus aureus [24] = experiment: Antibacterial activity against methicillin-resistant Staphylococcus aureus assessed as pitted cell structures at 1 time MIC incubated for 8 hrs by SEM analysis; type: functional, organism-based
# Staphylococcus aureus [25] = experiment: Antibacterial activity against methicillin-resistant Staphylococcus aureus assessed as shriveled cell structures at 1 time MIC incubated for 8 hrs by SEM analysis; type: functional, organism-based
# DNA [26] = experiment: Binding affinity to DNA (unknown origin) assessed as decrease in maximum absorption peak at 410nm at 3 10^-5 mol/L by UV spectrophotometric analysis; type: functional; conditions: Homo sapiens
# [27] = target: T1, MecA (Staphylococcus aureus) (UniProt Q7DHH4); experiment: Binding affinity to Staphylococcus aureus PBP2a measured after 6 hrs by ELISA in the presence of Norfloxacin; conditions: filed as positive allosteric modulator
# T1 sequence (whole entry): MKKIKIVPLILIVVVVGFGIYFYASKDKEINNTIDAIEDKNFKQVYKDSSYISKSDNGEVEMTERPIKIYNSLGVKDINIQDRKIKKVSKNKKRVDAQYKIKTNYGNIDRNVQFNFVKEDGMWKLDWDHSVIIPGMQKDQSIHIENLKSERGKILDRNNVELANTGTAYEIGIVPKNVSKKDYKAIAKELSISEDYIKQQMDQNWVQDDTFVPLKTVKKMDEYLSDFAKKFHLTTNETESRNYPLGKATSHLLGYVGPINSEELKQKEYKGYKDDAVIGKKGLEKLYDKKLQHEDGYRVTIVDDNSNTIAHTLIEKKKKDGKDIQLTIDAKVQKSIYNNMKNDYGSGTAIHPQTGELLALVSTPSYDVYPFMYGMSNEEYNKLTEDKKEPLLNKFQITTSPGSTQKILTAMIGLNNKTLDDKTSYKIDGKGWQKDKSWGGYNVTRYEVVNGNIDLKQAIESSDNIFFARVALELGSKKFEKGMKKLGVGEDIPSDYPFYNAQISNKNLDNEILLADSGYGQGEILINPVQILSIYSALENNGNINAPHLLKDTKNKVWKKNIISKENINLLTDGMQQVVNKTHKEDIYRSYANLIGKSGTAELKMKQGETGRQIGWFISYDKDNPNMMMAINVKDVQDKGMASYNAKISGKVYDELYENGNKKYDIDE
# [28] = target: T1, MecA (Staphylococcus aureus); experiment: Binding affinity to Staphylococcus aureus PBP2a measured after 6 hrs by ELISA in the presence of Ceftizoxime; conditions: filed as positive allosteric modulator
# Staphylococcus aureus [29] = experiment: Antibacterial activity against methicillin resistant Staphylococcus aureus treated over 10 serial passages measured after 24 hrs by resistance development assay; type: functional, organism-based
smiles,measurement,setting,value
CO/N=C(\C(=O)N1CCN(c2ccc3c4c(cccc24)C(=O)N(CCN(C)C)C3=O)CC1)c1csc(N)n1,MIC,Staphylococcus aureus [1],0.5 µg/mL
same,MIC,Enterococcus faecium,4 µg/mL
same,MIC,Staphylococcus aureus [2],16 µg/mL
same,MIC,Staphylococcus aureus [3],8 µg/mL
same,MIC,Staphylococcus aureus [4],4 µg/mL
same,MIC,Klebsiella pneumoniae,4 µg/mL
same,MIC,Escherichia coli [5],2 µg/mL
same,MIC,Pseudomonas aeruginosa [6],16 µg/mL
same,MIC,Acinetobacter baumannii,16 µg/mL
same,MIC,Pseudomonas aeruginosa [7],8 µg/mL
same,MIC,Escherichia coli [8],16 µg/mL
same,HC50 at 1 h,[9],205 µg/mL
same,Activity,L929,Non-Toxic
same,Activity,Staphylococcus aureus [10],Active
same,Activity,Staphylococcus aureus [11],Active
same,Activity,Staphylococcus aureus [12],Active
same,Activity,Staphylococcus aureus [13],Active
same,Activity,Staphylococcus aureus [14],Active
same,Activity,Cell membrane [15],Tde
same,Activity,Cell membrane [16],Tde
same,Activity,Cell membrane [17],Tde
same,Activity,Cell membrane [18],Dose-Dependent Effect
same,Activity,Staphylococcus aureus [19],45%
same,Activity,Staphylococcus aureus [20],Dose-Dependent Effect
same,Activity,Homo sapiens,Active
same,Activity,DNA [21],Active
same,Activity,DNA [22],Active
same,Activity,Staphylococcus aureus [23],Dose-Dependent Effect
same,Activity,Staphylococcus,4.58 µg/mL
same,Activity,Staphylococcus aureus [24],Active
same,Activity,Staphylococcus aureus [25],Active
same,Activity,DNA [26],Active
same,Activity,[27],4.96 ng/mL
same,Activity,[28],1.29 ng/mL
CN(C)CCN1C(=O)c2cccc3c(N4CCNCC4)ccc(c23)C1=O,Activity,Staphylococcus,4.74 µg/mL
CCn1cc(C(=O)O)c(=O)c2cc(F)c(N3CCNCC3)cc21 [NORFLOXACIN],Activity,Staphylococcus aureus [29],inactive
same,MIC,Staphylococcus aureus [1],16 µg/mL
same,MIC,Enterococcus faecium,8 µg/mL
same,MIC,Staphylococcus aureus [2],8 µg/mL
same,MIC,Staphylococcus aureus [3],16 µg/mL
same,MIC,Staphylococcus aureus [4],16 µg/mL
same,MIC,Klebsiella pneumoniae,4 µg/mL
same,MIC,Escherichia coli [5],2 µg/mL
same,MIC,Pseudomonas aeruginosa [6],4 µg/mL
same,MIC,Acinetobacter baumannii,1 µg/mL
same,MIC,Pseudomonas aeruginosa [7],2 µg/mL
same,MIC,Escherichia coli [8],4 µg/mL
same,Activity,Staphylococcus,7.67 µg/mL
CO/N=C(\C(=O)N1CCN(c2ccc3c4c(cccc24)C(=O)N(OC)C3=O)CC1)c1csc(N)n1,MIC,Staphylococcus aureus [1],128 µg/mL
same,MIC,Enterococcus faecium,2 µg/mL
same,MIC,Staphylococcus aureus [2],128 µg/mL
same,MIC,Staphylococcus aureus [3],64 µg/mL
same,MIC,Staphylococcus aureus [4],64 µg/mL
same,MIC,Klebsiella pneumoniae,128 µg/mL
same,MIC,Escherichia coli [5],64 µg/mL
same,MIC,Pseudomonas aeruginosa [6],128 µg/mL
same,MIC,Acinetobacter baumannii,4 µg/mL
same,MIC,Pseudomonas aeruginosa [7],32 µg/mL
same,MIC,Escherichia coli [8],64 µg/mL
same,HC50 at 1 h,[9],513 µg/mL
same,Activity,Staphylococcus,5.43 µg/mL
CN(C)CCN1C(=O)c2cccc3c(Br)ccc(c23)C1=O,Activity,Staphylococcus,7.08 µg/mL
CO/N=C(\C(=O)N1CCN(c2ccc3c4c(cccc24)C(=O)N(Oc2ccccc2)C3=O)CC1)c1csc(N)n1,MIC,Staphylococcus aureus [1],1 µg/mL
same,MIC,Enterococcus faecium,64 µg/mL
same,MIC,Staphylococcus aureus [2],64 µg/mL
same,MIC,Staphylococcus aureus [3],16 µg/mL
same,MIC,Staphylococcus aureus [4],64 µg/mL
same,MIC,Klebsiella pneumoniae,32 µg/mL
same,MIC,Escherichia coli [5],2 µg/mL
same,MIC,Pseudomonas aeruginosa [6],32 µg/mL
same,MIC,Acinetobacter baumannii,32 µg/mL
same,MIC,Pseudomonas aeruginosa [7],32 µg/mL
same,MIC,Escherichia coli [8],128 µg/mL
same,HC50 at 1 h,[9],223 µg/mL
